# Test system: 996289-038-R-J1-PDC complex spheroid viability
# Assay: Anticancer human tumor 996289-038-R-J1-PDC patient-derived colon adenocarcinoma cell line growth inhibition [CLK]
# Conditions: for IC50: curve of first compound; for viability, T/C: stronger effect = lower value
# Source text: A high-throughput screen of multi-cell type tumor spheroids was designed to identify active combinations of […] and targeted small molecules. Complex spheroids include a stromal component modeled by human endothelial cells (HUVEC) and fibroblasts modeled by human mesenchymal stem cells (MSCs). The concentration ranges selected for each drug and investigational agent were based upon clinically achievable concentrations if the clinical Cmax of the agent was known.
# Compounds. The drugs and investigational agents: cirtuvivint (SM08502; NSC835563), CC-671 (NSC850746), vemurafenib (NSC761431), tapotoclax (NSC804041), sotorasib (NSC818433), adagrasib (NSC831453), MRTX-1133 (NSC836407), BAY2416964 (NSC825713), copanlisib (NSC816437), inavolisib (NSC800729), abemaciclib (NSC768073), osimertinib (NSC779217), entinostat (NSC756642), eltanexor (KPT-8602, NSC794443), venetoclax (NSC766270), ceralasertib (NSC777638), bortezomib (NSC756655), olaparib (NSC753686), talazoparib (NSC767125), alisertib (NSC759677), peposertib (NSC802822), gemcitabine (NSC613327), 5-fluorouracil (NSC19893), SN-38 (NSC673596), oxaliplatin (NSC266046), paclitaxel (NSC125973), and doxorubicin (NSC123127), were obtained from the National Cancer Institute (NCI) Developmental Therapeutics Program Chemical Repository. The FDA-approved anticancer drug set is available from the Developmental Therapeutics Program at https://dtp.cancer.gov/organization/dscb/obtaining/available plates.htm. […] The stock solutions were prepared in dimethyl sulfoxide (DMSO, Sigma-Aldrich, St. Louis, MO, cat. D2650), except for the platinum complexes which were prepared in saline (Quality Biological, Gaithersburg, MD, cat. 114-055-101), at 800-fold the tested concentration and stored at -70 degrees C prior to their use. All drugs and investigational agents were tested over a range starting from a high concentration at or near the clinical Cmax and decreasing in half-log increments. If the clinical Cmax for an agent had not been determined, the highest concentration tested was 10 microM.
# Cell Culture. All cells were maintained in an incubator at 37 degrees C and 5% CO2 with 95% humidity. The PDC lines were cultured according to standard operating procedures established by the NCI PDMR. Briefly, all PDCs were thawed and cultured in Matrigel-coated flasks prepared with a working solution of 1X Ham's F-12 nutrient mix, without supplementation (Invitrogen, Waltham, MA, cat. 11765054), 100 U/mL penicillin-streptomycin (Invitrogen, cat. 15140122), and 2.5% Matrigel (Corning Inc., Corning, NY, cat. 354248) for the first three passages. The 947758-054-R-J2-PDC line was cultured in 6B/Colon 1A media, which includes advanced DMEM/F-12 (Thermo Fisher Scientific, cat. 12634028), 10 mM HEPES (Thermo Fisher Scientific, cat. 15630080), 1X GlutaMAX supplement (Thermo Fisher Scientific, cat. 35050061), 0.1 mg/mL primocin (InvivoGen, cat. ant-pm-2), 10% defined fetal bovine serum, heat inactivated (HyClone Laboratories Inc., cat. SH30070.03HI), 1.25 mM N-Acetyl-L-cysteine (Sigma-Aldrich, cat. A9165), 10 mM nicotinamide (Sigma-Aldrich, cat. N0636), 1X B-27 supplement (Thermo Fisher Scientific, cat. 17504044), 1X N-2 supplement (Thermo Fisher Scientific, cat. 17502048), and 10 microM Y-27632 dihydrochloride (Tocris Bioscience, cat. 1254). The 876862-298-R-J1-PDC was cultured in 6E media, which includes all 6B/Colon 1A media components plus 50% L-WRN conditioned media (ATCC, cat. CRL-3276), 50 ng/mL recombinant human EGF recombinant protein (hEGF; Thermo Fisher Scientific, cat. PHG0311), 10 ng/mL recombinant human fibroblast growth factor 10 (hGFG-10; PeproTech, cat. 100-26), 1 ng/mL recombinant human fibroblast growth factor 2 (hFGF-2; PeproTech, cat. 100-18B), and 1 µM prostaglandin E2 (PGE2; Tocris, cat. 2296). The 227483-062-R1-J1-PDC line was cultured in Panc media, containing all 6E components except hFGF-2, with the addition of 500 nM SB-431542 (Selleckchem, cat. S1067) and 10 nM gastrin (Tocris, cat. 3006). […]
# [1] = second compound 0.0316 µM, first compound 0.0316 µM
# [2] = second compound 0.0316 µM, first compound 0.1 µM
# [3] = second compound 0.0316 µM, first compound 0.316 µM
# [4] = second compound 0.0316 µM, first compound 1 µM
# [5] = second compound 0.0316 µM, first compound 3.16 µM
# [6] = second compound 0.0316 µM, first compound 10 µM
# [7] = second compound 0.1 µM, first compound 0.0316 µM
# [8] = second compound 0.1 µM, first compound 0.1 µM
# [9] = second compound 0.1 µM, first compound 0.316 µM
# [10] = second compound 0.1 µM, first compound 1 µM
# [11] = second compound 0.1 µM, first compound 3.16 µM
# [12] = second compound 0.1 µM, first compound 10 µM
# [13] = second compound 0.316 µM, first compound 0.0316 µM
# [14] = second compound 0.316 µM, first compound 0.1 µM
# [15] = second compound 0.316 µM, first compound 0.316 µM
# [16] = second compound 0.316 µM, first compound 1 µM
# [17] = second compound 0.316 µM, first compound 3.16 µM
# [18] = second compound 0.316 µM, first compound 10 µM
# [19] = second compound 1 µM, first compound 0.0316 µM
# [20] = second compound 1 µM, first compound 0.1 µM
# [21] = second compound 1 µM, first compound 0.316 µM
# [22] = second compound 1 µM, first compound 1 µM
# [23] = second compound 1 µM, first compound 3.16 µM
# [24] = second compound 1 µM, first compound 10 µM
# [25] = second compound 3.16 µM, first compound 0.0316 µM
# [26] = second compound 3.16 µM, first compound 0.1 µM
# [27] = second compound 3.16 µM, first compound 0.316 µM
# [28] = second compound 3.16 µM, first compound 1 µM
# [29] = second compound 3.16 µM, first compound 3.16 µM
# [30] = second compound 3.16 µM, first compound 10 µM
# [31] = second compound 10 µM, first compound 0.0316 µM
# [32] = second compound 10 µM, first compound 0.1 µM
# [33] = second compound 10 µM, first compound 0.316 µM
# [34] = second compound 10 µM, first compound 1 µM
# [35] = second compound 10 µM, first compound 3.16 µM
# [36] = second compound 10 µM, first compound 10 µM
# 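Also: spheroids exposed to the agents for 7 days before readout.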
smiles,measurement,setting,value
C=C(F)C(=O)N1CCN(c2nc(OCC3CCCN3C)nc3c2CCN(c2cccc4cccc(Cl)c24)C3)CC1CC#N (centres undefined) + CN1CCN(c2cc(C(=O)Nc3cc4cc(-c5cnn(C)c5)ccc4cn3)ccn2)CC1,IC50,second compound 0.0316 µM,4600 nM
same,IC50,second compound 0.1 µM,4410 nM
same,IC50,second compound 0.316 µM,2880 nM
same,IC50,second compound 1 µM,< 31.6 nM
same,IC50,second compound 3.16 µM,< 31.6 nM
same,IC50,second compound 10 µM,< 31.6 nM
same,"viability, T/C",[1],98.2%
same,"viability, T/C",[2],119%
same,"viability, T/C",[3],97.9%
same,"viability, T/C",[4],104%
same,"viability, T/C",[5],73.4%
same,"viability, T/C",[6],1.4%
same,"viability, T/C",[7],97.1%
same,"viability, T/C",[8],97.5%
same,"viability, T/C",[9],101%
same,"viability, T/C",[10],95.5%
same,"viability, T/C",[11],70.1%
same,"viability, T/C",[12],0.64%
same,"viability, T/C",[13],66.5%
same,"viability, T/C",[14],79.6%
same,"viability, T/C",[15],70.9%
same,"viability, T/C",[16],64.8%
same,"viability, T/C",[17],48.9%
same,"viability, T/C",[18],0.51%
same,"viability, T/C",[19],6.67%
same,"viability, T/C",[20],6.95%
same,"viability, T/C",[21],6.76%
same,"viability, T/C",[22],6.89%
same,"viability, T/C",[23],1.53%
same,"viability, T/C",[24],0.54%
same,"viability, T/C",[25],0.79%
same,"viability, T/C",[26],0.78%
same,"viability, T/C",[27],1.18%
same,"viability, T/C",[28],0.87%
same,"viability, T/C",[29],1.8%
same,"viability, T/C",[30],0.29%
same,"viability, T/C",[31],0.4%
same,"viability, T/C",[32],0.7%
same,"viability, T/C",[33],1.4%
same,"viability, T/C",[34],0.36%
same,"viability, T/C",[35],0.43%
same,"viability, T/C",[36],0.8%
C=CC(=O)N1CCN(c2nc(=O)n(-c3c(C)ccnc3C(C)C)c3nc(-c4c(O)cccc4F)c(F)cc23)C(C)C1 (centres undefined) + CN1CCN(c2cc(C(=O)Nc3cc4cc(-c5cnn(C)c5)ccc4cn3)ccn2)CC1,IC50,second compound 0.0316 µM,> 10000 nM
same,IC50,second compound 0.1 µM,> 10000 nM
same,IC50,second compound 0.316 µM,> 10000 nM
same,IC50,second compound 1 µM,< 31.6 nM
same,IC50,second compound 3.16 µM,< 31.6 nM
same,IC50,second compound 10 µM,< 31.6 nM
same,"viability, T/C",[1],112%
same,"viability, T/C",[2],111%
same,"viability, T/C",[3],111%
same,"viability, T/C",[4],104%
same,"viability, T/C",[5],114%
same,"viability, T/C",[6],109%
same,"viability, T/C",[7],97.5%
same,"viability, T/C",[8],102%
same,"viability, T/C",[9],91.6%
same,"viability, T/C",[10],103%
same,"viability, T/C",[11],102%
same,"viability, T/C",[12],99.3%
same,"viability, T/C",[13],80.5%
same,"viability, T/C",[14],73.1%
same,"viability, T/C",[15],74.2%
same,"viability, T/C",[16],82.5%
same,"viability, T/C",[17],85.3%
same,"viability, T/C",[18],77.7%
same,"viability, T/C",[19],8.05%
same,"viability, T/C",[20],7.07%
same,"viability, T/C",[21],9.28%
same,"viability, T/C",[22],8.41%
same,"viability, T/C",[23],10.3%
same,"viability, T/C",[24],6.56%
same,"viability, T/C",[25],1.21%
same,"viability, T/C",[26],1.63%
same,"viability, T/C",[27],1%
same,"viability, T/C",[28],1.24%
same,"viability, T/C",[29],1.69%
same,"viability, T/C",[30],1.89%
same,"viability, T/C",[31],0.33%
same,"viability, T/C",[32],1.03%
same,"viability, T/C",[33],0.3%
same,"viability, T/C",[34],0.75%
same,"viability, T/C",[35],0.42%
same,"viability, T/C",[36],1.33%
